How the values were obtained:
[1] = system: rats suffering from TBI; conditions: 16 mg/kg, 72 hours post-injury, FIG. 1, p<0.05; cited from earlier work
[2] = system: rats following injury; conditions: cited from earlier work
[3] = system: rats that have suffered a concussion; assay: Morris Water Maze latency to platform in mTBI (concussion) model; format: in vivo; conditions: versus vehicle-injured rats, FIG. 8
[4] = system: moderate to severe TBI patients; conditions: cited from earlier work
[5] = system: males; conditions: in males; cited from earlier work
[6] = system: glutathione reductase; conditions: 72 hours post-injury, compared to all other groups, FIG. 2, p<0.01; cited from earlier work
[7] = biological target: T1, progesterone receptor (PR) (Homo sapiens, UniProt P06401); conditions: cited from earlier work
T1 sequence (P06401 1-933): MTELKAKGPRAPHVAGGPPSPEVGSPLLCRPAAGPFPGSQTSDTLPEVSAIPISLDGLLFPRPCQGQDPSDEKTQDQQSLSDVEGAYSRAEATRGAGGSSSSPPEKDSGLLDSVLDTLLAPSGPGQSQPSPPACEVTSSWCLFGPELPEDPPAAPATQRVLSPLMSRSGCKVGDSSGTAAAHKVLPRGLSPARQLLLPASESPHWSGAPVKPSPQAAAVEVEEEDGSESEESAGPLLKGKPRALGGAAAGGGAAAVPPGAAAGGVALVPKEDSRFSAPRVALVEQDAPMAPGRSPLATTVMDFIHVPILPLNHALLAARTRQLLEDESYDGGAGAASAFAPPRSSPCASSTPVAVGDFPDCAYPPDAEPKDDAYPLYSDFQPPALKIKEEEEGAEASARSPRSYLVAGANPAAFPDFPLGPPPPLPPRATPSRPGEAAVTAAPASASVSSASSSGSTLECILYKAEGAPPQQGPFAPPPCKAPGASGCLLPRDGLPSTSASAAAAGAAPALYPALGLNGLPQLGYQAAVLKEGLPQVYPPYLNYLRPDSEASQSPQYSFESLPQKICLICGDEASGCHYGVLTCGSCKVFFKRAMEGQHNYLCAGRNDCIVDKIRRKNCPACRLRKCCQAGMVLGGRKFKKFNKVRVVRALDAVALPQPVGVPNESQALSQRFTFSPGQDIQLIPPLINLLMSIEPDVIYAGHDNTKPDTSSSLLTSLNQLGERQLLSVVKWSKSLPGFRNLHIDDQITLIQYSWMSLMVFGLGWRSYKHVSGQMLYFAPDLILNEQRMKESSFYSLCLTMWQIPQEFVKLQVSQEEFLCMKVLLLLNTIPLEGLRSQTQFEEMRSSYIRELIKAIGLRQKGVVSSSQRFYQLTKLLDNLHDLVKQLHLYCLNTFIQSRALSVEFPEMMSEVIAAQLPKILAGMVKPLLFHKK

SMILES	brain water content (measure of edema) [1]	factors of cell death (caspase-3) and gliosis (GFAP) [2]	latency to platform, post-acute administration ([3]; 15 minutes post mTBI)	latency to platform, prophylactic administration ([3]; 15 minutes prior to mTBI)	30 days post-injury outcomes (Glasgow Outcome Scale-Extended, Disability Rating Scale), moderate TBI ([4]; moderate TBI patients, 30 days post-injury)	reduction in mortality ([4]; moderate to severe TBI patients, 72 hours of continuous intravenous Prog)	30 days post-injury outcomes (Glasgow Outcome Scale-Extended, Disability Rating Scale), severe brain injuries ([4]; patients with severe brain injuries, 30 days post-injury)	neurological outcomes at six months ([4]; severe TBI patients, six months)	conversion of testosterone to dihydrotestosterone [5]	size of reproductive organs [5]	spermatogenesis [5]	edema in both rodent sexes ([2]; both rodent sexes)	inflammatory factors (TNF-α and IL-β) [2]	Neurological Severity Score (motor and cognitive functioning) ([2]; rats)	anti-oxidant activity of glutathione reductase [6]	activation of PR-mediated transcription [7]
CC(=O)[C@H]1CC[C@H]2[C@@H]3CC[C@H]4C[C@H](O)CC[C@]4(C)[C@H]3CC[C@]12C [ALLO, allopregnanolone]	normalizes brain water content	decreased of the presence of the factors of cell death (caspase-3) and gliosis (GFAP)	–	–	–	–	–	–	–	–	–	–	–	–	–	–
CC(=O)[C@H]1CC[C@H]2[C@@H]3CCC4=CC(=O)CC[C@]4(C)[C@H]3CC[C@]12C [Prog, progesterone]	normalizes brain water content	decreased of the presence of the factors of cell death (caspase-3) and gliosis (GFAP)	decreases latency to platform	decreases latency to platform	better outcomes	50%	little measurable difference	better neurological outcomes long-term	inhibits the conversion of testosterone to dihydrotestosterone	reduces the size of reproductive organs	suppresses spermatogenesis	effectively attenuates edema	inhibiting inflammatory factors (TNF-α and IL-β)	significant improvements	–	–
CC(=O)[C@@H]1CC[C@@H]2[C@H]3CCC4=CC(=O)CC[C@@]4(C)[C@@H]3CC[C@]21C [ent-Prog, ent-progesterone]	normalizes brain water content	–	–	–	–	–	–	–	–	–	–	–	–	–	significantly increases the anti-oxidant activity of glutathione reductase	does not activate PR-mediated transcription

— patent US20130090315A1 (priority 2011, published 2013)
